Source: the supplement of paper PMC10307832

Experiments:
Assay in all cases: relative viability (nuclei count vs DMSO), 5 days (fraction); higher = more cells survive
[1] = compound: C1/C(=C\C2=CC=CS2)/C(=O)/C(=C/C3=CC=CS3)/C1 + CCNC(=O)c1noc(-c2cc(C(C)C)c(O)cc2O)c1-c1ccc(CN2CCOCC2)cc1 [Luminespib] (partner 0.01 µM)
Summary of the method: (§1)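 Five library-drug doses in √10 steps were combined with a fixed anchor-drug dose, or a single drug was given alone, by pin tool to lung cancer cell lines in 1536-well plates the day after seeding. Nuclei were stained and counted after 5 days. Relative viability is the nuclei count in treated wells over that in vehicle wells, taken as the median of duplicate plates.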

[2] = compound: C1/C(=C\C2=CC=CS2)/C(=O)/C(=C/C3=CC=CS3)/C1 + CS(=O)(=O)CCNCc1ccc(-c2ccc3ncnc(Nc4ccc(OCc5cccc(F)c5)c(Cl)c4)c3c2)o1 [Lapatinib] (partner 2 µM)
Summary of the method: as §1

[3] = compound: C1/C(=C\C2=CC=CS2)/C(=O)/C(=C/C3=CC=CS3)/C1 + NC(=O)Nc1cc(-c2cccc(F)c2)sc1C(=O)N[C@H]1CCCNC1 [AZD7762] (partner 0.2 µM)
Summary of the method: as §1

[4] = compound: C[C@]12O[C@H](C[C@]1(O)CO)n1c3ccccc3c3c4c(c5c6ccccc6n2c5c31)CNC4=O [Lestaurtinib] + CS(=O)(=O)N1CCN(Cc2cc3nc(-c4cccc5[nH]ncc45)nc(N4CCOCC4)c3s2)CC1 [Pictilisib] (partner 1 µM)
Summary of the method: as §1

Cell Line | relative viability ([1]; first compound 0.2 µM) | relative viability ([1]; first compound 0.6325 µM) | relative viability ([1]; first compound 2 µM) | relative viability ([1]; first compound 6.325 µM) | relative viability ([1]; first compound 20 µM) | relative viability ([2]; first compound 0.2 µM) | relative viability ([2]; first compound 0.6325 µM) | relative viability ([2]; first compound 2 µM) | relative viability ([2]; first compound 6.325 µM) | relative viability ([2]; first compound 20 µM) | relative viability ([3]; first compound 0.2 µM) | relative viability ([3]; first compound 0.6325 µM) | relative viability ([3]; first compound 2 µM) | relative viability ([3]; first compound 20 µM) | relative viability ([4]; first compound 0.005 µM) | relative viability ([4]; first compound 0.01581 µM) | relative viability ([4]; first compound 0.05 µM) | relative viability ([4]; first compound 0.1581 µM) | relative viability ([4]; first compound 0.5 µM) | relative viability ([3]; first compound 6.325 µM)
EKVX | 0.914 | 0.83 | 0.904 | 0.678 | 0.842 | 0.184 | 0.207 | 0.264 | 0.185 | 0.199 | 0.631 | 0.685 | 0.764 | 0.695 | 0.518 | 0.461 | 0.442 | 0.571 | 0.387 | –
NCI-H1651 | 0.97 | 0.933 | 1.13 | 0.751 | 0.716 | 0.81 | 0.93 | 0.793 | – | 0.769 | 0.474 | 0.511 | 0.486 | 0.45 | 0.59 | 0.736 | 0.309 | 0.542 | 0.286 | 0.505
HCC-15 | 0.396 | 0.245 | 0.234 | 0.211 | 0.219 | 0.929 | 0.897 | 0.835 | 0.762 | 0.854 | 1.14 | 1.33 | 1.41 | 1.13 | 0.854 | 0.872 | 0.609 | 0.477 | 0.176 | 1.06
NCI-H23 | 0.237 | 0.197 | 0.2 | 0.203 | 0.194 | 0.918 | 1.4 | 1.44 | 0.861 | 1.12 | 0.25 | 0.342 | 0.294 | 0.175 | 0.5 | 0.468 | 0.353 | 0.375 | 0.204 | 0.244
NCI-H1792 | 0.509 | 0.285 | 0.468 | 0.583 | 0.388 | 0.819 | 0.915 | 1.04 | – | 0.899 | 0.772 | 0.755 | 0.75 | 0.587 | 0.316 | 0.302 | 0.243 | 0.141 | 0.129 | 0.521
NCI-H596 | 1.06 | 1.09 | 1.08 | 0.912 | 0.992 | 1.13 | 1.03 | 1.1 | 1 | 1.02 | 1.12 | 1.12 | 1.13 | 1.02 | 0.375 | 0.378 | 0.375 | 0.31 | 0.293 | 0.659
NCI-H460 | 0.0304 | 0.0338 | 0.0299 | 0.02 | 0.0356 | 1.07 | 1.2 | 0.929 | – | 0.893 | 0.684 | 0.595 | 0.634 | 0.609 | 0.315 | 0.392 | 0.298 | 0.224 | 0.201 | 0.618
NCI-H2085 | 0.446 | 0.433 | 0.453 | 0.41 | 0.503 | 0.876 | 0.768 | 0.876 | 0.692 | 0.701 | 1.03 | 1.05 | 0.926 | 0.932 | 0.482 | 0.474 | 0.465 | 0.476 | 0.49 | 0.932
